Laboratory results taken from US8993619B2, “Cyclic bridgehead ether DGAT1 inhibitors” (Novartis AG, priority 2012, dated 2015).

Legend:
human (His)6DGAT1 = target: T1, human (His)6DGAT1 (Homo sapiens, UniProt O75907); assay: DGAT1 Inhibition Assay; format: biochemical; details: membrane preparation from Sf9 cells overexpressing human (His)6DGAT1; LC/MS/MS readout
T1 construct: made in house; host or cells: Sf9 insect cells (membrane preparation)
T1 sequence (O75907 1-488): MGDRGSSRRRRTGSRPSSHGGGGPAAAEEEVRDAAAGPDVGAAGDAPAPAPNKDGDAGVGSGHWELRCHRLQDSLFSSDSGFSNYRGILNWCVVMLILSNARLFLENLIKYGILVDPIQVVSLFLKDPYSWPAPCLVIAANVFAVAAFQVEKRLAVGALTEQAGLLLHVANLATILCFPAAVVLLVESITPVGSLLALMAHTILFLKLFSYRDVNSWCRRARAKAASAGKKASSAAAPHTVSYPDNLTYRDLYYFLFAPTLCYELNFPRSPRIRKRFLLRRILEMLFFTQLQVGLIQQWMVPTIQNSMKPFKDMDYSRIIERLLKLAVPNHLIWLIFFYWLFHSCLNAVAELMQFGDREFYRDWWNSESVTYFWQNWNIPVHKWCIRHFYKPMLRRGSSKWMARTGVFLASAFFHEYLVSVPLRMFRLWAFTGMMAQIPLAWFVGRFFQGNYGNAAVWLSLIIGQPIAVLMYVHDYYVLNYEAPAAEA
Experimental: The enzyme preparation used in this assay is a membrane preparation from Sf9 cells overexpressing human (His)6DGAT1. During all steps samples were chilled to 4° C. Sf9 cells expressing human (His)6DGAT1 were thawed at room temperature and re-suspended at a 10:1 ratio (mL buffer/g of cells) in 50 mM HEPES, 1× Complete Protease Inhibitor, pH 7.5. The re-suspended pellet was homogenized for 1 min using a Brinkman PT 10/35 homogenizer with a 20 mm generator. Cells were lysed using Avestin Emulsiflex (chilled to 4° C.) at 10000-15000 psi. Lysate was centrifuged at 100,000×g for 1 h at 4° C. Supernatant was removed and pellets were re-suspended in 50 mM HEPES, 1× Complete Protease Inhibitor, pH 7.5 at ⅙ the volume of supernatant. Re-suspended pellets were pooled and homogenized with 10 strokes of a Glas-Col motor driven teflon pestle on setting 70. The protein concentration of the membrane preparation was quantified using BCA protein assay with 1% SDS. The membrane preparation was aliquoted, frozen on dry ice, and stored at −80° C.
For 50 mL, 25 mL of 0.2 M HEPES stock buffer, 0.5 mL of 1 M MgCl2 ([…]), and 24.5 mL of milli-Q H2O are added to the 55 mL Wheaton Potter-Elvehjem homogenizer. Enzyme preparation (0.1 mL) is added to buffer and the mixture is homogenized with 5 strokes on ice using the Glas-Col variable speed homogenizer system on setting 70.
For 50 mL, 0.5 mL 10 mM diolein is added to 9.5 mL of EtOH in a 50 mL Falcon screw cap conical centrifuge tube. Five mL of 10 mM sodium acetate pH 4.5 is added followed by 0.5 mL of 10 mM oleoyl-CoA. Finally, the remaining 4.5 mL of 10 mM sodium acetate pH 4.5 is added followed by 30 mL of milli-Q H20. The solution should be gently agitated by hand to induce mixing. The final concentrations of EtOH and sodium acetate are 20% and 2 mM, respectively.
Dry compounds are dissolved in the appropriate volume of DMSO to a final concentration of 10 mM. […] All dilutions are performed in DMSO in a Greiner 384-well microplate. • 1. 2 μL of compound in DMSO is added to the appropriate wells. […] 25 μL of enzyme mix is added to all wells and plate(s) are incubated for 10 min at RT. • 3. […] Plate(s) are vortexed using Troemner multi-tube vortexer (setting 7 for 10 sec). • 4. 25 μL of substrate mix is added to all wells. Plate(s) are vortexed using Troemner multi-tube vortexer (setting 7 for 10 sec). Plate(s) are incubated for 30 min at RT. • 5. 10 μL of 20% acetic acid quench is added to all wells. Plate(s) are vortexed using Troemner multi-tube vortexer (setting 7 for 10 sec). • 6. 50 μL of 1-butanol w/ glyceryl tripalmitoleate internal standard is added to all wells. • 7. Plate(s) are sealed with super pierce strong plate sealer using the thermo-sealer. • 8. Plate(s) are vortexed using Troemner multi-tube vortexer (setting 10 for 5 min). • 9. Plate(s) are centrifuged at 162×g (1000 rpm for GH-3.8 rotor) for 5 min using Beckman GS-6R tabletop centrifuge.
Where indicated, tripalmitolein was used as an internal standard to control for instrument variation.
Column: Thermo Betabasic 4, 2.1×20 mm
Solvent: 10 mM Ammonium Formate, 0.1% Formic Acid, 2% water, 98% Methanol
Isocratic run 0.5 ml per minute
Data is converted to % inhibition prior to curve fitting using the following equation: […]

DGAT1 in C2C12 cells = target: T2, DGAT1 in C2C12 cells (Mus musculus, UniProt Q9Z2A7); assay: Cellular assay to measure activity of DGAT1 inhibitors in mammalian cells (C2C12); format: cell-based; details: C2C12 mouse skeletal muscle cells, 250 μM oleate, 2 h, LC/MS readout
T2 construct: endogenous in cells; host or cells: C2C12 mouse skeletal muscle cells
T2 sequence (Q9Z2A7 1-498): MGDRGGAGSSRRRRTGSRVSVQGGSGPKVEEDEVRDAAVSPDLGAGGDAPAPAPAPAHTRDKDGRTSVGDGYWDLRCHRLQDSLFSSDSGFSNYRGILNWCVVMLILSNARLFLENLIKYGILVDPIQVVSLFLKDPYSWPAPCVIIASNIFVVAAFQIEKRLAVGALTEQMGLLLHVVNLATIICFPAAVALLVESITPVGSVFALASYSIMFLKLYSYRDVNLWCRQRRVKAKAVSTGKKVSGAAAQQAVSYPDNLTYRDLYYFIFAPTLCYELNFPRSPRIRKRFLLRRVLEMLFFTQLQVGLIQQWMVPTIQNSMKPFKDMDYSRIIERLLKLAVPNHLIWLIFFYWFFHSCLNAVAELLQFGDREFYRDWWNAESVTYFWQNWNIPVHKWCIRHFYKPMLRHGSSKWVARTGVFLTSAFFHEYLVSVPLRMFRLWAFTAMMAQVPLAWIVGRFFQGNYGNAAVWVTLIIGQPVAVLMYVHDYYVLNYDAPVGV
Experimental: C2C12 cells are an immortal mouse skeletal muscle cell line showing an 8-fold enrichment form DGAT1 versus DGAT2. C2C12 cells were routinely cultured in 150 cm2 flasks with DMEM (25 mM glucose) containing 10% FBS, 4 m M L-glutamine, 100 U/ml penicillin and 100 μg/ml streptomycin (30 ml per flask), at 37° C., 5% CO2 and 95% humidity. All studies were performed on cells at passage 10 or less.
C2C12 cells were seeded in 96-well plates in DMEM containing […] glucose and 10% FBS, 18 h (at 37° C.) prior to assay (all wells of the plate are used). […] Compounds were added at 1:3 dilution, 11 points and DMSO control, the starting concentration was usually 40 μM. Each point was dosed in quadruplicate allowing 2 compounds to be dosed per plate. The medium was removed at the end of the incubation and 200 μl/well of 1-butanol added. The 1-butanol contained an internal standard, tripalmitolein (2 μM). The plates were sealed with an adhesive plate sealer and left at room temperature for at least 30 min, then spun down at 209×g for 5 min.
Butanolic extracts were transferred to 384-well LC-MS plates (80 μl/well) and the plate heatsealed with a foil plate sealer. The 384-well plates containing sample were spun down at 209×g for 5 min prior to loading on the LC-MS.
Where indicated, tripalmitolein was used as an internal standard to control for instrument variation. HPLC conditions as above.

CC(C)(C)c1nnc(Nc2ccc(-c3ccc(C45CCC(CC(=O)O)(CC4)OC5)cc3)nc2)o1 [Example 1, 2-(4-(4-(5-(5-tert-butyl-1,3,4-oxadiazol-2-ylamino)pyridin-2-yl)phenyl)-2-oxabicyclo[2.2.2]octan-1-yl)acetic acid] was tested, and the IC50 (human (His)6DGAT1) was 345 nM and the IC50 (DGAT1 in C2C12 cells) was 288 nM.

Compound O=C(O)CC12CCC(c3ccc(-c4ccc(Nc5nnc(C6CCC6)s5)cn4)cc3)(CC1)CO2 [Example 3, 2-(4-(4-(5-((5-cyclobutyl-1,3,4-thiadiazol-2-yl)amino)pyridin-2-yl)phenyl)-2-oxabicyclo[2.2.2]octan-1-yl)acetic acid] has an IC50 (human (His)6DGAT1) of 53.5 nM and an IC50 (DGAT1 in C2C12 cells) of 15 nM.

With O=C(O)CC12CCC(c3ccc(-c4cnc(Nc5nnc(C6CCC6)s5)nc4)cc3)(CC1)CO2 [Example 4, 2-(4-(4-(2-(5-cyclobutyl-1,3,4-thiadiazol-2-ylamino)pyrimidin-5-yl)phenyl)-2-oxabicyclo[2.2.2]octan-1-yl)acetic acid] the IC50 (human (His)6DGAT1) was 14000 nM and the IC50 (DGAT1 in C2C12 cells) was 2500 nM.

For O=C(O)CC12CCC(c3ccc(-c4ccc(Nc5nnc(C6CCC6)s5)nc4)cc3)(CC1)CO2 [Example 5, 2-(4-(4-(6-((5-cyclobutyl-1,3,4-thiadiazol-2-yl)amino)pyridin-3-yl)phenyl)-2-oxabicyclo[2.2.2]octan-1-yl)acetic acid], the IC50 (human (His)6DGAT1) was 375 nM and the IC50 (DGAT1 in C2C12 cells) was 1240 nM.

In the case of O=C(O)CC12CCC(c3ccc(-c4ccc(Nc5nnc(C6CCC6)s5)cc4)cc3)(CC1)CO2 [Example 6, 2-(4-(4′-(5-cyclobutyl-1,3,4-thiadiazol-2-ylamino)biphenyl-4-yl)-2-oxabicyclo[2.2.2]octan-1-yl)acetic acid], the IC50 (human (His)6DGAT1) is reported as 12.5 nM and the IC50 (DGAT1 in C2C12 cells) is reported as 2 nM.

For CC(C)(C)c1nnc(Nc2ccc(-c3ccc(C45CCC(CC(=O)O)(CC4)OC5)cc3)cc2)o1 [Example 8, 2-(4-(4′-(5-tert-butyl-1,3,4-oxadiazol-2-ylamino)biphenyl-4-yl)-2-oxabicyclo[2.2.2]octan-1-yl)acetic acid], the IC50 (human (His)6DGAT1) was 99 nM and the IC50 (DGAT1 in C2C12 cells) was 9 nM.

In the case of O=C(O)CC12CCC(c3ccc(-c4ccc(Nc5nnc(C6CC6)o5)cc4)cc3)(CC1)CO2 [Example 9, 2-(4-(4′-((5-cyclopropyl-1,3,4-oxadiazol-2-yl)amino)-[1,1′-biphenyl]-4-yl)-2-oxabicyclo[2.2.2]octan-1-yl)acetic acid], the IC50 (human (His)6DGAT1) is reported as 230000 nM and the IC50 (DGAT1 in C2C12 cells; heading: DGAT1-C2C12 IC50) is reported as 528 nM.

Work on Cc1nc(C(=O)Nc2ccc(-c3ccc(C45CCC(CC(=O)O)(CC4)OC5)cc3)cc2)c(C(F)(F)F)o1 [Example 10, 2-(4-(4′-(2-methyl-5-(trifluoromethyl)oxazole-4-carboxamido)-[1,1′-biphenyl]-4-yl)-2-oxabicyclo[2.2.2]octan-1-yl)acetic acid] yielded an IC50 (human (His)6DGAT1) of 360 nM and an IC50 (DGAT1 in C2C12 cells) of 56 nM.

Cc1nc(C(=O)Nc2ccc(-c3ccc(C45CCC(CC(=O)O)(CC4)OC5)cc3)nc2)c(C(F)(F)F)o1 [Example 12, 2-(4-(4-(5-(2-methyl-5-(trifluoromethyl)oxazole-4-carboxamido)pyridin-2-yl)phenyl)-2-oxabicyclo[2.2.2]octan-1-yl)acetic acid] was tested, and the IC50 (human (His)6DGAT1) was 878 nM.

For CC(C)(C)c1cnc(Nc2ccc(-c3ccc(C45CCC(CC(=O)O)(CC4)OC5)cc3)nc2)o1 [Example 14, 2-(4-(4-(5-((5-(tert-butyl)oxazol-2-yl)amino)pyridin-2-yl)phenyl)-2-oxabicyclo[2.2.2]octan-1-yl)acetic acid], the IC50 (human (His)6DGAT1) was 130 nM and the IC50 (DGAT1 in C2C12 cells) was 108 nM.

CC(C)(C)c1cnc(Nc2ccc(-c3ccc(C45CCC(CC(=O)O)(CC4)OC5)cc3)cc2)o1 [Example 15, 2-(4-(4′-((5-(tert-butyl)oxazol-2-yl)amino)-[1,1′-biphenyl]-4-yl)-2-oxabicyclo[2.2.2]octan-1-yl)acetic acid] showed an IC50 (human (His)6DGAT1) of 44 nM and an IC50 (DGAT1 in C2C12 cells) of 7 nM.

CC(C)Cc1nnc(Nc2ccc(-c3ccc(C45CCC(CC(=O)O)(CC4)OC5)cc3)cc2)o1 [Example 16, 2-(4-(4′-((5-isobutyl-1,3,4-oxadiazol-2-yl)amino)-[1,1′-biphenyl]-4-yl)-2-oxabicyclo[2.2.2]octan-1-yl)acetic acid] was tested, and the IC50 (human (His)6DGAT1) was 60 nM and the IC50 (DGAT1 in C2C12 cells) was 38 nM.

For CC(C)(C)Cc1nnc(Nc2ccc(-c3ccc(C45CCC(CC(=O)O)(CC4)OC5)cc3)cc2)o1 [Example 17, 2-(4-(4′-((5-neopentyl-1,3,4-oxadiazol-2-yl)amino)-[1,1′-biphenyl]-4-yl)-2-oxabicyclo[2.2.2]octan-1-yl)acetic acid], the IC50 (human (His)6DGAT1) was 53 nM and the IC50 (DGAT1 in C2C12 cells) was 31 nM.

Compound CCc1nc(C)c(C(=O)Nc2ccc(-c3ccc(C45CCC(CC(=O)O)(CC4)CO5)cc3)cc2)o1 [Example 18, 2-(1-(4′-(2-ethyl-4-methyloxazole-5-carboxamido)-[1,1′-biphenyl]-4-yl)-2-oxabicyclo[2.2.2]octan-4-yl)acetic acid] has an IC50 (human (His)6DGAT1) of 2900 nM and an IC50 (DGAT1 in C2C12 cells) of 160 nM.

Compound O=C(O)CC12CCC(c3ccc(-c4ccc(Nc5nnc(C6CCC6)o5)cc4)cc3)(CC1)OC2 [Example 19, {1-[4′-(5-cyclobutyl-[1,3,4]oxadiazol-2-ylamino)-biphenyl-4-yl]-2-oxa-bicyclo[2.2.2]oct-4-yl}-acetic acid] has an IC50 (human (His)6DGAT1) of 260 nM and an IC50 (DGAT1 in C2C12 cells) of 6 nM.
